In ChEMBL document CHEMBL1136277, “(R)-3-(N-methylpyrrolidin-2-ylmethyl)-5-(1,2,3,6-tetrahydropyridin-4-yl)-1H-indole derivatives as high affinity h5-HT1B/1D ligands” (Bioorg Med Chem Lett, 2003):
pKi: −log10 of the molar value.

What was measured:
[1] = molecular target: T1, 5-hydroxytryptamine receptor 1B (Homo sapiens, UniProt P28222); assay: Selectivity ratio against cloned human 5-HT1B receptor to that of h5-HT1D receptor
[2] = molecular target: T1, 5-hydroxytryptamine receptor 1B; assay: Binding affinity towards cloned human 5-hydroxytryptamine 1B receptor
[3] = molecular target: 5-hydroxytryptamine receptor 1D (Homo sapiens, UniProt P28221); assay: Binding affinity towards cloned human 5-hydroxytryptamine 1D receptor
Sequence of 5-hydroxytryptamine receptor 1D (P28221 whole entry): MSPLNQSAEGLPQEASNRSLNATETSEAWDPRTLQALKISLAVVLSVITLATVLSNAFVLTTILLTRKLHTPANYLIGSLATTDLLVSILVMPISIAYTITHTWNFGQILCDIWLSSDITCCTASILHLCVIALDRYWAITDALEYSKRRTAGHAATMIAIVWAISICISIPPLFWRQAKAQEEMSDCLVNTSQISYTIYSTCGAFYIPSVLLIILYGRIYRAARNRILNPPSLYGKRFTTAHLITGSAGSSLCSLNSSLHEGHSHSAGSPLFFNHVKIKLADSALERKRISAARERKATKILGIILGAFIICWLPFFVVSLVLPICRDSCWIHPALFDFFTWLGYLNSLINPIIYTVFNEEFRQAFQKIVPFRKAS

T1 sequence (P28222 whole entry): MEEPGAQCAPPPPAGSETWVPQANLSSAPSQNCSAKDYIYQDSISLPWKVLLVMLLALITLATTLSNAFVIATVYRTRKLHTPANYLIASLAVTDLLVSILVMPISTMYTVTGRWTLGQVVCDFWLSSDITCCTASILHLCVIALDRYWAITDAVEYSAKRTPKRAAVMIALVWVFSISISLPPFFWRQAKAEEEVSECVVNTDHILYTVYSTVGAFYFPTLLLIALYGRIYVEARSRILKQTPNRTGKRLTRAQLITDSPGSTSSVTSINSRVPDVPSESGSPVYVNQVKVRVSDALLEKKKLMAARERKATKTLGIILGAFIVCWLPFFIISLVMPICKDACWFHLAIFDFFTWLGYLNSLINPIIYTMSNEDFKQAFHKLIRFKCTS

CN1CCC[C@@H]1Cc1c[nH]c2ccc(C3=CCN(S(=O)(=O)c4cccc5ccccc45)CC3)cc12 was tested. Which Selectivity [1] did it give?
Its Selectivity is 26.

What about the pKi [2] of the same molecule?
Its pKi is 7.64.

What about the pKi [3] of the same molecule?
Its pKi is 9.06.

How did the Selectivity [1] turn out when CN1CCC[C@@H]1Cc1c[nH]c2ccc(C3=CCN(/C(S)=N/c4ccc(Cl)cc4)CC3)cc12 was run?
The Selectivity was 2.7.

And the pKi [2]?
The pKi was 8.82.

What about the pKi [3] of the same molecule?
The pKi was 9.25.

For Cc1ccc(S(=O)(=O)N2CC=C(c3ccc4[nH]cc(C[C@H]5CCCN5C)c4c3)CC2)cc1, which Selectivity [1] is on record?
The Selectivity was 21.

And the pKi [2]?
Its pKi is 7.77.

And the pKi [3]?
Its pKi is 9.10.

With COc1ccc(NC(=S)N2CC=C(c3ccc4[nH]cc(C[C@H]5CCCN5C)c4c3)CC2)cc1 as the molecule, how does the Selectivity [1] read?
The Selectivity was 5.2.

And the pKi [2]?
The pKi was 8.62.

And the pKi [3]?
The pKi was 9.34.

What does the source list for CN1CCC[C@@H]1Cc1c[nH]c2ccc(C3=CCN(C(=O)NC4CCCCC4)CC3)cc12?
Selectivity [1]: 4.6; pKi [2]: 7.85; pKi [3]: 8.52

Which Selectivity [1] does the source give for Cc1ccc(NC(=O)N2CC=C(c3ccc4[nH]cc(C[C@H]5CCCN5C)c4c3)CC2)cc1 here?
Its Selectivity is 9.7.

And the pKi [2]?
Its pKi is 8.52.

And the pKi [3]?
Its pKi is 9.51.

With CN1CCC[C@@H]1Cc1c[nH]c2ccc(C3=CCN(C(=S)NC4CCCCC4)CC3)cc12 as the molecule, how does the pKi [2] read?
The pKi was 7.89.

And the pKi [3]?
Its pKi is 8.70.

With CN1CCC[C@@H]1Cc1c[nH]c2ccc(C3=CCN(/C(S)=N/c4ccccc4)CC3)cc12 as the molecule, how does the Selectivity [1] read?
Its Selectivity is 8.5.

CN1CCC[C@@H]1Cc1c[nH]c2ccc(C3=CCN(C(=O)Nc4cccc5ccccc45)CC3)cc12 was tested. Which Selectivity [1] did it give?
The Selectivity was 8.4.

And the pKi [2]?
The pKi was 8.42.

What about the pKi [3] of the same molecule?
The pKi was 9.35.

What does the source list for CN(C)CCc1c[nH]c2ccc(C3=CCN(C)CC3)cc12?
pKi [2]: 6.21; pKi [3]: 8.10

What does the source list for CN1CCC[C@@H]1Cc1c[nH]c2ccc(C3=CCN(C(=O)NC45C[C@H]6C[C@@H](C4)C[C@@H](C5)C6)CC3)cc12?
Selectivity [1]: 2.8; pKi [2]: 7.96; pKi [3]: 8.40

CN1CCC[C@@H]1Cc1c[nH]c2ccc(C3=CCN(/C(S)=N/C45C[C@H]6C[C@@H](C4)C[C@@H](C5)C6)CC3)cc12 was tested. Which Selectivity [1] did it give?
Its Selectivity is 7.

What about the pKi [2] of the same molecule?
The pKi was 7.41.

What about the pKi [3] of the same molecule?
Its pKi is 8.25.

How did the pKi [2] turn out when CN1CCC[C@@H]1Cc1c[nH]c2ccc(C3=CCN(C(=S)Nc4ccccc4)CC3)cc12 was run?
Its pKi is 8.24.

What about the pKi [3] of the same molecule?
The pKi was 9.17.

For CN1CCC[C@@H]1Cc1c[nH]c2ccc(C3=CCN(C(=O)Nc4ccccc4)CC3)cc12, which Selectivity [1] is on record?
Its Selectivity is 11.

And the pKi [2]?
Its pKi is 8.32.

And the pKi [3]?
The pKi was 9.35.

Which results are given for COc1ccc(NC(=O)N2CC=C(c3ccc4[nH]cc(C[C@H]5CCCN5C)c4c3)CC2)cc1?
Selectivity [1]: 10; pKi [2]: 8.38; pKi [3]: 9.38

For COc1ccc(S(=O)(=O)N2CC=C(c3ccc4[nH]cc(C[C@H]5CCCN5C)c4c3)CC2)cc1, which Selectivity [1] is on record?
Its Selectivity is 19.

What about the pKi [2] of the same molecule?
Its pKi is 7.85.

And the pKi [3]?
Its pKi is 9.12.

How did the Selectivity [1] turn out when CN1CCC[C@@H]1Cc1c[nH]c2ccc(C3=CCN(/C(S)=N/c4cccc5ccccc45)CC3)cc12 was run?
Its Selectivity is 4.6.

And the pKi [2]?
Its pKi is 8.49.

What about the pKi [3] of the same molecule?
The pKi was 9.15.

With CN1CCC[C@@H]1Cc1c[nH]c2ccc(C3=CCN(/C(S)=N/C4CCCCC4)CC3)cc12 as the molecule, how does the Selectivity [1] read?
Its Selectivity is 6.3.

With Cc1ccc(NC(=S)N2CC=C(c3ccc4[nH]cc(C[C@H]5CCCN5C)c4c3)CC2)cc1 as the molecule, how does the pKi [2] read?
The pKi was 8.82.

And the pKi [3]?
The pKi was 9.42.

Which results are given for CN1CCC[C@@H]1Cc1c[nH]c2ccc(C3=CCN(C(=O)Nc4ccc(Cl)cc4)CC3)cc12?
Selectivity [1]: 10; pKi [2]: 8.42; pKi [3]: 9.42

Cc1ccc(/N=C(\S)N2CC=C(c3ccc4[nH]cc(C[C@H]5CCCN5C)c4c3)CC2)cc1 was tested. Which Selectivity [1] did it give?
Its Selectivity is 3.9.
